{
  "source": "patent US20220386582A1",
  "about": "“METHOD AND DEVICE TO TRAP ACARIDS” (DOMOBIOS, priority 2015, published 2022)",
  "type_in_all_cases": "in vivo",
  "key": {"[1]": {"tested_on": "Dermatophagoides farinae", "assay": "Mini-mattress trap: attraction capabilities of attracting solutions sprayed on felt", "method": "(§1) Rearing: The species studied were Dermatophagoides pteronyssinus and Dermatophagoides farinae, house dust mite common in mattresses in Eurasia. Mites are reared in Petri dishes and fed with human skin flakes (skin and whiskers obtained by cleaning electric […]). All mites were reared together under defined conditions (20° C. and 75% relative humidity). The experiments took place in a room kept at 20° C. and 40% relative humidity. Aim of the experiments: The aim was to test the trap in condition similar to the conditions that will be met by the user of the trap. Materials and methods: The mattresses were built at a smaller scale (15× reduction) than usual mattresses. These mini-mattresses are made in polyurethane and covered by a cover in cotton. They were infested with mites since at least 3 months. The fabric was a felt of 20 mg/cm^2 and is a rectangle of 10 cm×20 cm. It was placed on the mini-mattress. Then the attracting solution was sprayed on the fabric with a spray bottle. The fabric was left in place on the mattress during one hour. During this time, the mites moved in the felt. It is very difficult to count directly the mites hidden in the mattress and in the fabric. Therefore, we used a Berlèse funnel which is a device that is usually used to separate insects from litter. Here, it was used to separate the mites from their mattress or from the fabric. The Berlèse funnel uses a light bulb to heat and dry the mattress, thus driving the mites downwards through a screen and into a collecting jar containing some food and some water. […] They are attracted by a source of moisture and the smell of food. The mattress or blanket were therefore placed in the funnel (FIG. 2). The mites went downwards in the direction of the jar, then in the jar. The harvest of the jar containing the mites took place after one day. Mites had then 24 hours to migrate to the jar collector. As a substantial proportion of the population is immobile (moulting mites), trapping is less efficient than it would be otherwise and estimate of population size that is trapped are likely to be biased. To avoid this bias and make a proper assessment of the populations in infested mattresses, mattresses were carefully brushed with a soft brush at the end of the manipulation meaning that immobile mites and eggs also fall into the funnel. Fabric was carefully brushed too. The Berlèze funnel was rinsed with ethanol. Thus, mites still on the inner wall of the funnel were driven by ethanol in the jar collector. At the end of the experiment, the jar contained: the food used as attracting to mites, a small amount of water also used for attracting, mites, and ethanol. The jar was emptied into a Petri dish and we counted mites under binocular. Counting of mites was made under binocular microscope (magnification 10×). The set-up is illuminated with a cold lamp (KL 1500 LCD, Schott ●). The felt was sprayed with different attracting compositions: a solution of lavandulol, a solution of Tween 60, a combination of lavandulol and Tween 60, a solution of citral, and the attracting solution commercialized under the brand name Acar'up were compared at various dilutions."}, "[2]": {"tested_on": "Dermatophagoides pteronyssinus", "assay": "Mini-mattress trap: attraction capabilities of attracting solutions sprayed on felt", "method": "as §1"}, "[3]": {"tested_on": "Acarus siro", "assay": "Toxicity, direct contact", "method": "(§2) FIGS. 11A-11D are sets of graphs showing the percentage of dead mites after direct contact with different doses of lavandulol (at a dilution of 10^−6, 0.184 of pure solution or 0.5 μL of pure solution) or water (Ctrl) for different time of exposure. Four species of mites were tested: Dermatophagoides pteronyssinus (FIG. 11A), Dermatophagoides farinae (FIG. 11B), Tyrophagus putrescentiae (FIG. 11C) and Acarus siro (FIG. 11D).\n(§3) The species studied were two species of dust common in mattresses in Eurasia (Dermatophagoides pteronyssinus and Dermatophagoides farinae), and two species of stored food mites common in Eurasia (Tyrophagus putrescentiae and Acarus siro). These four species were reared under defined conditions (20° C. and 75% relative humidity). The house dust mites were fed with human flakes (skin and whiskers obtained by cleaning electric shavers) and stored food mites were fed with fish food. The experiments were performed at 20° C. and 40% relative humidity.\n(§4) For this experiment, for each of the four species, a group of mites (10<n<25) was placed in a Petri dish in direct contact with the substance to test. To directly contact mites with the substance, a piece of paper filter (5×1 cm) impregnated with lavandulol at various concentration (10 μL of a 10^−6 dilution, 0.18 μL of pure solution and 0.5 μL of pure solution, corresponding respectively to 8.8 ng, 0.15 mg or 0.417 mg of lavandulol), or with a neutral solution, was placed in the Petri dish. The dish was then closed with Parafilm●.\n(§5) After a determined time (15 min, 1 hour or 24 hours), the number of dead mites were counted as previously described."}, "[4]": {"tested_on": "Dermatophagoides farinae", "assay": "Toxicity, direct contact", "method": "as §2, §3, §4, §5"}, "[5]": {"tested_on": "Dermatophagoides pteronyssinus", "assay": "Toxicity, direct contact", "method": "as §2, §3, §4, §5"}, "[6]": {"tested_on": "Tyrophagus putrescentiae", "assay": "Toxicity, direct contact", "method": "as §2, §3, §4, §5"}, "[7]": {"details": "Dilution 10^−6 (* mixture of a lavandulol solution at 10^−6 and a Tween 60 solution at 10^−6)"}, "[8]": {"details": "10^−6 dilution (10 μL), 15 min, 1 hour or 24 hours"}, "[9]": {"details": "pure solutions (0.18 μL and 0.5 μL), after 1 hour"}, "[10]": {"details": "pure solutions (0.18 μL and 0.5 μL), after 24 hours"}},
  "data": [
    {"smiles": "C=C(C)C(CO)CC=C(C)C", "note": "(stereo not drawn) [Lavandulol, 5-Methyl-2-prop-1-en-2-ylhex-4-en-1-ol]", "values": [
      {"measurement": "attraction capabilities, percentage of mites", "setting": "[1]; Dilution 10^−3", "value": 57, "unit": "%"},
      {"measurement": "attraction capabilities, percentage of mites", "setting": "[1]; Dilution 10^−5", "value": 90, "unit": "%"},
      {"measurement": "attraction capabilities, percentage of mites", "setting": "[1]; [7]", "value": 71, "unit": "%"},
      {"measurement": "attraction capabilities, percentage of mites", "setting": "[1]; Dilution 10^−8", "value": 37, "unit": "%"},
      {"measurement": "attraction capabilities, percentage of mites", "setting": "[1]; Dilution 10^−9", "value": 28, "unit": "%"},
      {"measurement": "attraction capabilities, percentage of mites", "setting": "[1]; Dilution Undiluted", "value": 6, "unit": "%"},
      {"measurement": "attraction capabilities, percentage of mites", "setting": "[2]; Dilution 10^−1", "value": 34, "unit": "%"},
      {"measurement": "attraction capabilities, percentage of mites", "setting": "[2]; Dilution 10^−3", "value": 56, "unit": "%"},
      {"measurement": "attraction capabilities, percentage of mites", "setting": "[2]; Dilution 10^−5", "value": 91, "unit": "%"},
      {"measurement": "attraction capabilities, percentage of mites", "setting": "[2]; [7]", "value": 64, "unit": "%"},
      {"measurement": "attraction capabilities, percentage of mites", "setting": "[2]; Dilution 10^−8", "value": 46, "unit": "%"},
      {"measurement": "attraction capabilities, percentage of mites", "setting": "[2]; Dilution 10^−9", "value": 55, "unit": "%"},
      {"measurement": "attraction capabilities, percentage of mites", "setting": "[2]; Dilution Undiluted", "value": 8, "unit": "%"},
      {"measurement": "death of mites by contact", "setting": "[3]; [8]", "value": "doesn't cause death of mites"},
      {"measurement": "mites died by contact", "setting": "[3]; [9]", "value": 97, "unit": "%"},
      {"measurement": "death of mites by contact", "setting": "[4]; [8]", "value": "doesn't cause death of mites"},
      {"measurement": "death of mites by contact", "setting": "[4]; [9]", "value": "lead to mites' death"},
      {"measurement": "death of mites by contact", "setting": "[4]; [10]", "value": "all mites being died"},
      {"measurement": "death of mites by contact", "setting": "[5]; [8]", "value": "doesn't cause death of mites"},
      {"measurement": "death of mites by contact", "setting": "[5]; [9]", "value": "lead to mites' death"},
      {"measurement": "death of mites by contact", "setting": "[5]; [10]", "value": "all mites being died"},
      {"measurement": "death of mites by contact", "setting": "[6]; [8]", "value": "doesn't cause death of mites"},
      {"measurement": "death of mites by contact", "setting": "[6]; [9]", "value": "lead to mites' death"},
      {"measurement": "death of mites by contact", "setting": "[6]; [10]", "value": "all mites being died"}
    ]}
  ]
}
